{"source": "paper PMC7156724", "about": "“Potent BRD4 inhibitor suppresses cancer cell-macrophage interaction” (Nature Communications, 2020)", "key": {"[1]": {"system": "TAMs (CD68+ cells) in A2780 tumors", "experiment": "Immunofluorescent staining of CD68 and Ki67 (TAMs) in subcutaneous A2780 tumors", "format": "in vivo, mouse", "details": "individual tumors", "text": "Shown are immunofluorescent staining of CD68 (macrophage marker, red) and E-Cadherin (cancer cells, green) (a) and quantification of CD68 positive cells (b) in vehicle, NHWD-870 treated H526 (n = 6) and A2780 (n = 5) tumors from Fig. 3a, b, respectively. Scale bar is 100 μm. […] Shown are representative immunofluorescent staining of Ki67 and CD68 (c) and quantification of percentage of Ki67+ cells in CD68+ cells (d). Scale bar is 30 μm. Data are presented as mean ± SEM of five different tumors. e Schematics of the animal experiments using an orthotopic mouse OC model, established by intraperitoneally injecting human A2780 cells into female recipient nude mice. […] Shown are representative immunofluorescent staining of Ki67 and CD68 (h) and quantification of Ki67^+CD68^− (i) or Ki67^+CD68^+ (j), or CD68^+ cells (k). […] Data are presented as mean ± SEM from five different mice. p values were calculated using two-tailed, unpaired t tests in this figure. *p < 0.05; **p < 0.01; ***p < 0.001. […]\nImmunofluorescence staining of tumor sections was performed according to the manufacturer’s instructions. Slides were imaged using a Zeiss Axiovert 200 fluorescence microscope (Carl Zeiss MicroImaging; Thornwood, NY), and images were captured using Openlab3 software (Imprecision, Lexington, MA). Cleaved caspase 3, Ki67, CSF1, and CD68 positive cells were counted with ImageJ version 1.52s[58]."}, "[2]": {"experiment": "Equilibrium dialysis assay, SD rat plasma", "method": "The concentration was calculated using the peak area ratio of analyte and internal […]\nThe results were calculated by the following equations:\n% Unbound = 100 *FC / TC, % Bound = 100 * (1-FC / TC)\n% Recovery = 100 * (FC + TC) / T0\nTC = Total compound concentration as determined by the calculated concentration on the retentate side of the membrane\nFC = Free compound concentration as determined by the calculated concentration on the dialysate side of the membrane […]\nEquation of first order kinetics: […]\n8. Equilibrium dialysis assay. Binding with plasma protein and recovery rate of NHWD-870 were performed with human, CD-1 mouse and SD rat plasma as […]\ndescribed 2. […] The concentration was […]\ncalculated using the peak area ratio of analyte and internal standard. The results were calculated by the following equations: % Unbound = 100 *FC / TC, % Bound = 100 * (1-FC / TC); % Recovery = 100 * (FC + TC) / T0; TC = Total compound concentration as determined by the calculated concentration on the retentate side of the membrane; FC = Free compound concentration as determined by the (1 picture or pasted object on this page, not shown here) […]\ncalculated concentration on the dialysate side of the membrane; T0 = To t a l compound concentration as determined before dialysis. […]\n10. hERG channel assay. […]\nHEK293 cell line stably"}}, "note": "Several values for one entry are separate records, joined by “and”; a condition that tells them apart may be missing. Equal values may be shown once."}
{"smiles": "Cc1nnn(C)c1-c1cnc2c3c4cnn(C)c4ccc3n([C@H](c3ccccc3)C3CCOCC3)c2c1", "note": "[NHWD-870]", "values": [{"measurement": "quantification of CD68 positive cells", "setting": "[1]; subcutaneous A2780 tumors from Fig. 3b", "result": "0.5 and 0.3 and 0.2 and 1.2 and 2.3"}, {"measurement": "percentage of Ki67+ cells in CD68+ cells", "setting": "[1]; subcutaneous A2780 tumors", "result": "3.1 and 0 (3×) and 1.7"}, {"measurement": "% Bound", "setting": "[2]; SD rat plasma, equilibrium dialysis", "result": 95.4, "unit": "%"}, {"measurement": "fraction unbound", "setting": "[2]; SD, rat, plasma", "result": 0.046}, {"measurement": "recovery", "setting": "[2]; SD, rat, plasma", "result": 92.5, "unit": "%"}]}
